Earlier results, collected in patent US20150374878A1, “[…] FOR WOUND CARE” (AKESO BIOMEDICAL, INC., priority 2014, published 2015).

Details: see U.S. Pat. No. 5,858,365 to Faller

half-life in serum: about 2 minutes
SMILES: CCCC(=O)O [butyric acid]
